Measurements from ChEMBL document CHEMBL1130900, “Synthesis and structure-activity relationships of 2-pyridones: II. 8-(Fluoro-substituted pyrrolidinyl)-2-pyridones as antibacterial agents” (Bioorg Med Chem Lett, 1998).
≈ marks a conversion by molar mass, not a printed value.

Columns and labels:
Escherichia coli [1] = assay: Effective dose against Escherichia coli JUHL in mice upon subcutaneous administration; assay type: functional; conditions: sc
Streptococcus equinus = assay: Antibacterial activity against Gram-positive Streptococcus bovis A5169 was determined; assay type: functional
DNA gyrase (bacterial) = assay: Compound was tested for bacterial DNA gyrase activity; conditions: Bacteria
Staphylococcus aureus [2] = assay: Antibacterial activity against Staphylococcus aureus NCTC-10649M was determined; assay type: functional
Providencia stuartii = assay: Antibacterial activity against Gram-negative Providencia Stuartii CMX640 was determined; assay type: functional
Klebsiella aerogenes = assay: Antibacterial activity against Enterobacter aerogenes ATCC 13048 was determined; assay type: functional
Klebsiella pneumoniae = assay: Antibacterial activity against Klebsiella pneumoniae ATCC 8045 was determined; assay type: functional
Staphylococcus aureus [3] = assay: Effective dose against Staphylococcus aureus NCTC-10649M in mice upon peroral administration; assay type: functional; conditions: po
[4] = Compound was tested for its effective dose against Escherichia coli JUHL in mice upon peroral administration; assay type: functional; conditions: Mus musculus, po
Escherichia coli [5] = assay: Antibacterial activity against Escherichia coli JUHL was determined; assay type: functional
Enterococcus faecium = assay: Antibacterial activity against Enterococcus faecium ATCC 8043 was determined; assay type: functional
Staphylococcus aureus [6] = assay: Effective dose against Staphylococcus aureus NCTC-10649M in mice upon subcutaneous administration; assay type: functional; conditions: sc
Pseudomonas aeruginosa = assay: Antibacterial activity against Pseudomonas aeruginosa A-5007 was determined; assay type: functional
Streptococcus pyogenes = assay: Antibacterial activity against Streptococcus pyogenes EES61 was determined; assay type: functional
Staphylococcus aureus [7] = assay: Antibacterial activity against Staphylococcus aureus A1775 was determined; assay type: functional
[8] = Compound was evaluated for maximal plasma concentration in rat upon 5 mg/kg upon oral administration; assay type: ADME, organism-based; design: dose 5 mg/kg, route oral
[9] = Oral bioavailability in rat (dose 5 mg/kg); assay type: ADME, organism-based; conditions: in vivo
[10] = Streptococcus equinus, read-out: MIC
[11] = Staphylococcus aureus, read-out: MIC
[12] = Providencia stuartii, read-out: MIC
[13] = Klebsiella aerogenes, ATCC 13048, read-out: MIC
[14] = Klebsiella pneumoniae, ATCC 8045, read-out: MIC
[15] = Escherichia coli, read-out: MIC
[16] = Enterococcus faecium, ATCC 8043, read-out: MIC
[17] = Pseudomonas aeruginosa, read-out: MIC
[18] = Streptococcus pyogenes, read-out: MIC

Compound	MIC (Streptococcus equinus; [10])	MIC (Staphylococcus aureus [2]; [11])	MIC (Providencia stuartii; [12])	MIC (Klebsiella aerogenes; [13])	MIC (Klebsiella pneumoniae; [14])	MIC (Escherichia coli [5]; [15])	MIC (Enterococcus faecium; [16])	MIC (Pseudomonas aeruginosa; [17])	MIC (Streptococcus pyogenes; [18])	MIC (Staphylococcus aureus [7]; [11])	Cmax [8]	bioavailability [9]	ED50 (Escherichia coli [1])	CC50 (DNA gyrase (bacterial))	ED50 (Staphylococcus aureus [3])	ED50 [4]	ED50 (Staphylococcus aureus [6])	other results
Cc1c(N2CC[C@H]([C@@H](N)C(F)(F)F)C2)c(F)cn2c(=O)c(C(=O)O)cc(C3CC3)c12	0.2 µg/mL (≈ 0.468 µM)	0.005 µg/mL (≈ 0.0117 µM)	3.1 µg/mL (≈ 7.25 µM)	0.78 µg/mL (≈ 1.82 µM)	0.2 µg/mL (≈ 0.468 µM)	0.2 µg/mL (≈ 0.468 µM)	0.1 µg/mL (≈ 0.234 µM)	6.2 µg/mL (≈ 14.5 µM)	0.2 µg/mL (≈ 0.468 µM)	0.39 µg/mL (≈ 0.912 µM)	800 ng/mL	57%	> 4 mg/kg/day		25 mg/kg/day	> 10 mg/kg/day	11.9 mg/kg/day	
Cc1c(N2C[C@@H](N)[C@H](F)C2)c(F)cn2c(=O)c(C(=O)O)cc(C3CC3)c12 (stereo in doubt; 3a) [listing 1 of 2 here]														0.7 µg/mL (≈ 1.93 µM)				
Cc1c(N2CCC(F)(CN)C2)c(F)cn2c(=O)c(C(=O)O)cc(C3CC3)c12 (stereo not drawn)	0.02 µg/mL (≈ 0.053 µM)	0.01 µg/mL (≈ 0.0265 µM)	0.78 µg/mL (≈ 2.07 µM)	0.05 µg/mL (≈ 0.132 µM)	0.005 µg/mL (≈ 0.0132 µM)	0.02 µg/mL (≈ 0.053 µM)	0.02 µg/mL (≈ 0.053 µM)	0.39 µg/mL (≈ 1.03 µM)	0.02 µg/mL (≈ 0.053 µM)	0.39 µg/mL (≈ 1.03 µM)								
Cc1c(N2C[C@@H](N)[C@H](F)C2)c(F)cn2c(=O)c(C(=O)O)cc(C3CC3)c12 (stereo in doubt; 3a) [listing 2 of 2 here]						0.02 µg/mL (≈ 0.055 µM)												MIC (Streptococcus equinus): 0.2 µg/mL (≈ 0.55 µM); MIC (Staphylococcus aureus [2]): 0.02 µg/mL (≈ 0.055 µM); MIC (Providencia stuartii): 1.56 µg/mL (≈ 4.29 µM); MIC (Klebsiella aerogenes): 0.05 µg/mL (≈ 0.138 µM); MIC (Klebsiella pneumoniae): 0.02 µg/mL (≈ 0.055 µM); MIC (Enterococcus faecium): 0.1 µg/mL (≈ 0.275 µM); MIC (Pseudomonas aeruginosa): 0.78 µg/mL (≈ 2.15 µM); MIC (Streptococcus pyogenes): 0.2 µg/mL (≈ 0.55 µM); MIC (Staphylococcus aureus [7]): 0.78 µg/mL (≈ 2.15 µM)
Cc1c(N2C[C@@H](CF)[C@H](N)C2)c(F)cn2c(=O)c(C(=O)O)cc(C3CC3)c12 (racemic)																		MIC (Staphylococcus aureus [2]): 0.2 µg/mL (≈ 0.53 µM); MIC (Providencia stuartii): 0.78 µg/mL (≈ 2.07 µM); MIC (Klebsiella aerogenes): 0.05 µg/mL (≈ 0.132 µM); MIC (Klebsiella pneumoniae): 0.005 µg/mL (≈ 0.0132 µM); MIC (Escherichia coli [5]): 0.01 µg/mL (≈ 0.0265 µM); MIC (Enterococcus faecium): 0.1 µg/mL (≈ 0.265 µM); MIC (Pseudomonas aeruginosa): 0.39 µg/mL (≈ 1.03 µM); MIC (Streptococcus pyogenes): 0.1 µg/mL (≈ 0.265 µM); MIC (Staphylococcus aureus [7]): 3.1 µg/mL (≈ 8.21 µM)

Further lines, with some results ahead:

MIC (Streptococcus equinus; [10])	MIC (Staphylococcus aureus [2]; [11])	MIC (Providencia stuartii; [12])	MIC (Klebsiella aerogenes; [13])	MIC (Klebsiella pneumoniae; [14])	MIC (Escherichia coli [5]; [15])	MIC (Enterococcus faecium; [16])	MIC (Pseudomonas aeruginosa; [17])	MIC (Streptococcus pyogenes; [18])	MIC (Staphylococcus aureus [7]; [11])	Cmax [8]	bioavailability [9]	Compound	ED50 (Escherichia coli [1])	CC50 (DNA gyrase (bacterial))	ED50 (Staphylococcus aureus [3])	ED50 [4]	ED50 (Staphylococcus aureus [6])	other results
0.02 µg/mL (≈ 0.0579 µM)	0.1 µg/mL (≈ 0.29 µM)	0.2 µg/mL (≈ 0.579 µM)	0.005 µg/mL (≈ 0.0145 µM)	0.005 µg/mL (≈ 0.0145 µM)	0.002 µg/mL (≈ 0.00579 µM)	0.02 µg/mL (≈ 0.0579 µM)	0.5 µg/mL (≈ 1.45 µM)	0.02 µg/mL (≈ 0.0579 µM)	0.78 µg/mL (≈ 2.26 µM)			Cc1c(N2CC[C@H](N)C2)c(F)cn2c(=O)c(C(=O)O)cc(C3CC3)c12 [ABT-719]	0.1 mg/kg/day	0.03 µg/mL (≈ 0.0869 µM)	3.4 mg/kg/day	0.6 mg/kg/day	0.6 mg/kg/day	
0.1 µg/mL (≈ 0.287 µM)	0.02 µg/mL (≈ 0.0574 µM)	0.78 µg/mL (≈ 2.24 µM)	0.39 µg/mL (≈ 1.12 µM)	0.1 µg/mL (≈ 0.287 µM)	0.1 µg/mL (≈ 0.287 µM)	0.05 µg/mL (≈ 0.144 µM)	1.56 µg/mL (≈ 4.48 µM)	0.1 µg/mL (≈ 0.287 µM)	1.56 µg/mL (≈ 4.48 µM)	350 ng/mL	13%	Cc1c(N2CCC(F)C2)c(F)cn2c(=O)c(C(=O)O)cc(C3CC3)c12 (stereo not drawn)		0.6 µg/mL (≈ 1.72 µM)	> 50 mg/kg/day		> 12 mg/kg/day	
0.2 µg/mL (≈ 0.53 µM)	0.02 µg/mL (≈ 0.053 µM)	0.39 µg/mL (≈ 1.03 µM)	0.1 µg/mL (≈ 0.265 µM)	0.01 µg/mL (≈ 0.0265 µM)	0.02 µg/mL (≈ 0.053 µM)	0.1 µg/mL (≈ 0.265 µM)	0.39 µg/mL (≈ 1.03 µM)	0.1 µg/mL (≈ 0.265 µM)	0.78 µg/mL (≈ 2.07 µM)	600 ng/mL	63%	Cc1c(N2CCC(N)(CF)C2)c(F)cn2c(=O)c(C(=O)O)cc(C3CC3)c12 (stereo not drawn)	4.3 mg/kg/day		10.3 mg/kg/day	15.1 mg/kg/day	2.7 mg/kg/day	
0.02 µg/mL (≈ 0.0468 µM)	0.01 µg/mL (≈ 0.0234 µM)	1.56 µg/mL (≈ 3.65 µM)	0.05 µg/mL (≈ 0.117 µM)	0.01 µg/mL (≈ 0.0234 µM)	0.02 µg/mL (≈ 0.0468 µM)	0.02 µg/mL (≈ 0.0468 µM)	0.39 µg/mL (≈ 0.912 µM)	0.02 µg/mL (≈ 0.0468 µM)	0.78 µg/mL (≈ 1.82 µM)			Cc1c(N2C[C@@H](CN)[C@H](C(F)(F)F)C2)c(F)cn2c(=O)c(C(=O)O)cc(C3CC3)c12		6.5 µg/mL (≈ 15.2 µM)	2.6 mg/kg/day		0.7 mg/kg/day	
0.1 µg/mL (≈ 0.255 µM)	0.02 µg/mL (≈ 0.0511 µM)	0.78 µg/mL (≈ 1.99 µM)		0.1 µg/mL (≈ 0.255 µM)	0.05 µg/mL (≈ 0.128 µM)	0.1 µg/mL (≈ 0.255 µM)	0.78 µg/mL (≈ 1.99 µM)	0.05 µg/mL (≈ 0.128 µM)	1.56 µg/mL (≈ 3.99 µM)			Cc1c(N2CCC(CN)(CF)C2)c(F)cn2c(=O)c(C(=O)O)cc(C3CC3)c12 (stereo not drawn)	1.5 mg/kg/day		3.8 mg/kg/day	> 10 mg/kg/day	1.5 mg/kg/day	
